Among the data in EP0252028A1 (priority 1986, dated 1988) are Growth inhibition zones and LD50 values, retold here.

Data set [1] has as its system Candida parapsilosis. Nature of the data set: agar diffusion test, growth inhibition zones. It counts as cell-based.
For data set [2], the system named is Salmonella tiphymurium ATCC 13311. Kind of data set: agar diffusion test, growth inhibition zones. Type of data set: cell-based.
Data set [3] relates to Candida albicans 2. Kind of data set: agar diffusion test, growth inhibition zones. Type of data set: cell-based.
Data set [4] relates to Sarcina lutea ATCC 9341. Nature of the data set: agar diffusion test, growth inhibition zones. Type of data set: cell-based.
Data set [5] concerns Streptococcus faecalis ATCC 8043. Nature of the data set: agar diffusion test, growth inhibition zones. It counts as cell-based.
For data set [6], the system named is Candida albicans 1. Nature of the data set: agar diffusion test, growth inhibition zones. Type of data set: cell-based.
For data set [7], the system named is Staphylococcus aureus ATCC 9144. Kind of data set: agar diffusion test, growth inhibition zones. Type of data set: cell-based.
The subject of data set [8] is Bacillus subtilis ATCC 6051. Nature of the data set: agar diffusion test, growth inhibition zones. It counts as cell-based.
Data set [9] relates to Mycobacterium aurum NCTC 10437. Nature of the data set: agar diffusion test, growth inhibition zones.
Procedure: The antitubercular activity was evaluated in in vitro tests against Mycobacterium aurum.
The test system of data set [10] is Candida albicans PCA6. Kind of data set: agar diffusion test, growth inhibition zones. It counts as cell-based.
The subject of data set [11] is Escherichia coli ATCC 10538. Nature of the data set: agar diffusion test, growth inhibition zones. It counts as cell-based.
Data set [12] deals with Aspergillus fumigatus. Nature of the data set: agar diffusion test, growth inhibition zones. It counts as cell-based.
For data set [13], the system named is Staphylococcus epidermis ATCC 14990. Kind of data set: agar diffusion test, growth inhibition zones. It counts as cell-based.
Data set [14] relates to Cryptococcus albidus. Kind of data set: agar diffusion test, growth inhibition zones. Type of data set: cell-based.
Data set [15] has as its system Enterobacter aerogenes ATCC 13047. Kind of data set: agar diffusion test, growth inhibition zones. It counts as cell-based.
The subject of data set [16] is Candida tropicalis. Nature of the data set: agar diffusion test, growth inhibition zones. Type of data set: cell-based.
Data set [17] in a line: acute toxicity (LD50) in mice. Particulars: mouse, in vivo, iv; CD1 mice. The text has this: The nitrofurylbenzimidazoles (I) prepared via the process of the present invention are suitable for being compounded into topically administrable ointments and creams. […] Examples of typical formulations (suited for both topical application and systemic administration) are illustrated in the above-mentioned UK patents 1,072;735 and 1,094,903.

Data set [18] relates to Cryptococcus neoformans. Nature of the data set: agar diffusion test, growth inhibition zones. Type of data set: cell-based.
The test system of data set [19] is Aspergillus Niger. Nature of the data set: agar diffusion test, growth inhibition zones. It counts as cell-based.
Data set [20] deals with Aspergillus Flavus. Nature of the data set: agar diffusion test, growth inhibition zones. It counts as cell-based.
Data set [21] has as its system Rodutorula rubra. Nature of the data set: agar diffusion test, growth inhibition zones. Type of data set: cell-based.
The test system of data set [22] is Torulopsis Candida. Kind of data set: agar diffusion test, growth inhibition zones. Type of data set: cell-based.

In the case of `Cc1ccc2[nH]c(-c3ccc([N+](=O)[O-])o3)nc2c1` [Es. 2, 5-methyl-2-(5'-nitro-2'-furyl)-benzimidazole], the Growth inhibition zones is listed as 29 mm in data set [1]; 12 mm in [2]; 33 mm in data set [3]; 12 mm in data set [4]; 23 mm in data set [5]; 18 mm in data set [6]. The Growth inhibition zones is given as 30 mm in data set [7]; 30 mm in [8]; 13 mm in data set [9]; 32 mm in data set [10]; 13 mm in data set [11]; 13 mm in [12]. Further, the Growth inhibition zones in [13] was 32 mm; in [14], 25 mm; in data set [15], 16 mm.

In the case of `O=[N+]([O-])c1ccc2[nH]c(-c3ccc([N+](=O)[O-])o3)nc2c1` [Es. 4, 5-nitro-2-(5'-nitro-2'-furyl)-benzimidazole], the Growth inhibition zones in data set [2] is listed as 15 mm; in [4], 12 mm; in data set [5], 20 mm; in data set [7], 30 mm; in [8] it was 30 mm; in data set [9] it was 15 mm. Moreover, the Growth inhibition zones in data set [11] worked out at 15 mm; in data set [13], 32 mm; in data set [15], 14 mm.

For the compound `O=[N+]([O-])c1ccc(-c2nc3cc(Cl)ccc3[nH]2)o1` [Es. 6, 5-chloro-2-(5'-nitro-2'-furyl)-benzimidazole], the Growth inhibition zones was 21 mm in data set [1]; 14 mm in data set [2]; 22 mm in data set [3]; 22 mm in data set [5]; 15 mm in [6]; 28 mm in data set [7]. The Growth inhibition zones in [8] was 23 mm; in data set [9] it was 13 mm; in [10], 22 mm; in data set [11], 15 mm; in data set [13] it was 30 mm; in [15] it was 12 mm.

Take `O=[N+]([O-])c1ccc(-c2nc3ccccc3[nH]2)o1` [Es. 1, 2-(5'-nitro-2'-furyl)-benzimidazole]: the Growth inhibition zones in data set [1] came to 37 mm; in [2], 20 mm; in data set [3], 42 mm; in data set [4] it was 15 mm; in data set [5], 24 mm; in data set [6] it was 25 mm. Besides, the Growth inhibition zones in data set [7] amounted to 35 mm; in data set [8] it was 36 mm; in data set [9], 24 mm; in data set [10] it was 40 mm; in data set [11], 22 mm; in [12] it was 22 mm. For the same compound, the Growth inhibition zones came to 35 mm in [13], 33 mm in data set [14] and 18 mm in data set [15].

`O=[N+]([O-])c1ccc(-c2nc3cc(C(F)(F)F)ccc3[nH]2)o1` [Es. 5, 5-trifluoromethyl-2-(5'-nitro-2'-furyl)-benzimidazole]: the Growth inhibition zones was found to be 20 mm in data set [1]; 13 mm in data set [2]; 22 mm in data set [3]; 14 mm in data set [4]; 21 mm in data set [5]; 30 mm in data set [7]. The Growth inhibition zones amounted to 26 mm in [8]; 22 mm in [9]; 23 mm in data set [10]; 11 mm in data set [11]; 30 mm in data set [13].

On to `O=[N+]([O-])c1ccc(-c2nc3cc(F)ccc3[nH]2)o1` [Es. 3, 5-fluoro-2-(5'-nitro-2'-furyl)-benzimidazole], for which the Growth inhibition zones is reported as 25 mm in data set [16]; 34 mm in data set [1]; 23 mm in data set [2]; 34 mm in [3]; 27 mm in data set [4]; 33 mm in data set [5]. Besides, the Growth inhibition zones is listed as 34 mm in data set [6]; 45 mm in data set [18]; 28 mm in [7]; 27 mm in data set [8]; 35 mm in data set [9]; 34 mm in data set [10]. The Growth inhibition zones was determined as 21 mm in data set [11]; 30 mm in [12]; 29 mm in data set [13]; 38 mm in [19]; 35 mm in [14]; 30 mm in data set [20]. Also, the Growth inhibition zones in data set [21] was 35 mm; in data set [22], 42 mm. In data set [17], this compound yielded a median lethal dose (LD50) of 240 mg/kg.
